Source: publication PMC11831487, “Novel Naphthyridones Targeting Pannexin 1 for Colitis Management” (Advanced Science, 2024)

Tests used:
[1] = molecular target: T1, Pannexin 1 (PANX1) (Homo sapiens, UniProt Q96RD7); experiment: whole-cell voltage clamp in HEK293T cells (-50 mV); CETSA (Tagg […] to […] °C); type: cell-based; parameters: hPANX1(TEV)-EGFP cleaved by TEVp (currents); full-length hPANX1-FLAG (CETSA)
[2] = molecular target: T1, Pannexin 1 (PANX1); experiment: To-Pro-3 uptake in HEK293T cells at […]; type: cell-based; parameters: C-terminally truncated hPANX1-CT-EGFP; conditions: HEK-293T; read-out: Mean ± SEM ^a)

T1 sequence (Q96RD7 1-379 limits assumed): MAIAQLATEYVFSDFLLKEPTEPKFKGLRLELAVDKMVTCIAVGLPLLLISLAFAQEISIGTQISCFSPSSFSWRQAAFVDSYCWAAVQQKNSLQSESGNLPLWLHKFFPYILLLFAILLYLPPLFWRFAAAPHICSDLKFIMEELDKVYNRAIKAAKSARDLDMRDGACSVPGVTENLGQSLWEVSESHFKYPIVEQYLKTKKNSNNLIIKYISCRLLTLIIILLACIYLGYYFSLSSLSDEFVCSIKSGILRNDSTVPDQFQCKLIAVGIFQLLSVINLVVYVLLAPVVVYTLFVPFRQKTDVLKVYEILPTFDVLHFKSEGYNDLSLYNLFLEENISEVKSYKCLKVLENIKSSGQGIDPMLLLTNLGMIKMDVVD

Q: With COc1ccc(Cn2cc(C(=O)O)c(=O)c3cc(F)c(N4CCN(C)CC4)nc32)c(OC)c1 [compound 12, lithium 1‐(2,4‐dimethoxybenzyl)−6‐fluoro‐7‐(4‐methylpiperazin‐1‐yl)−4‐oxo‐1,4‐dihydro‐1,8‐naphthyridine‐3‐carboxylate] as the compound, how does the IC50 [1] read?
A: ~0.73 µM

Q: N[C@@H]1[C@H]2CN(c3nc4c(cc3F)c(=O)c(C(=O)O)cn4-c3ccc(F)cc3F)C[C@@H]12 [Trovan, trovafloxacin] was tested. Which inhibition at 20 µM [2] did it give?
A: 87.3 ± 1.3%
